Test results from patent US7754896B2, “Indol-alanine derivatives as selective S1P4-agonists” (Novartis AG, priority 2004, dated 2010).

Molecular target: T1, S1P5 (Homo sapiens, UniProt Q9H228)
T1 construct: expressed in transfected cells
Experiment: GTPγS binding assay, S1P5
Type: biochemical
Conditions: CHO cells expressing S1P5
From the text: The human S1P5 (GI: 30171332 or GenBank™ accession number AY262689, TREMBL: Q9H228) is cloned by a PCR based method. Lung and spleen cDNA (marathon cDNA) is obtained from BD Biosciences Chlontech (BD Biosciences Chlontech, Palo Alto, Calif. 94303, USA); genomic DNA is isolated from HeLa cells using standard procedures. Following oligonucleotides are used for the PCR reaction: forward primer CACCATGGAGTCGGGGCTGCTGCG (−4 to 20, GenBank™ accession number AY262689) and reverse primer 5′-TCAGTCTGCAGCCGGTTCTGATACCAGAGTC (1197 to 1131, AY262689), the initiation of the translation (ATG) and the stop codon are underlined. The PCR is performed In the presence of 0.2-0.4 μg cDNA, 1× reaction buffer (10× PfuTurbo DNA polymerase buffer, Stratagene, La Jolla, Calif. 92037, USA), 0.5 μM primers, 0.25 mM dNTP's and 2.5 units PfuTurbo DNA polymerase (Stratagene), a first step at 95° C. for 2 min, 30 cycles (30 sec at 95° C., 30 sec at 60° C. and 90 sec at 72° C.) and final step of 10 min at 72° C. The amplified product of around 1100 bp is analyzed by standard agarose gel-electrophoresis. […]
Membrane proteins are prepared from wild type CHO-K1 and the CHO cell clones expressing human S1P4. […] The protein concentration is determined using the Bio Rad Protein Assay and human IgG as standard. […]

T1 sequence (Q9H228 whole entry): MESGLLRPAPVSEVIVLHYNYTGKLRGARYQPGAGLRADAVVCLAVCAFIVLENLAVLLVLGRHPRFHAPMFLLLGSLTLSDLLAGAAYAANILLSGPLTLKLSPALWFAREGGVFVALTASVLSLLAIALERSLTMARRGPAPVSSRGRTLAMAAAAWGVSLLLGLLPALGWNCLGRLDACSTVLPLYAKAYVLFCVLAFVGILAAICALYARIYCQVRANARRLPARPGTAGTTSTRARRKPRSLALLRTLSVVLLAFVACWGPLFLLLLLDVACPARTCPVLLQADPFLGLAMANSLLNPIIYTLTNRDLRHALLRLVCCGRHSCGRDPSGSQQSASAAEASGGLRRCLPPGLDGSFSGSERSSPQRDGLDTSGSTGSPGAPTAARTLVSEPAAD

Compound: NC(CNC(=O)c1cc2c(-c3ccccc3Cc3ccccc3)cccc2[nH]1)C(=O)O (stereo not shown) [Example 2]
- EC50: > 10 µM
